From patent publication US20240423952A1, “COMPOSITIONS AND METHODS FOR TREATING CONGENITAL DISORDERS” (Ibagen Pharmaceuticals, Inc., priority 2021, published 2024)
Several values for one entry are separate records, joined by “and”; a condition that tells them apart may be missing. Equal values may be shown once. Where a name gives a salt, the structure may show the parent alone.

Key:
[1] = tested on: N2 non-transgenic worms; experiment: Screen of putative NALCN antagonists by motor behavior, N2 control worms on compound agar; assay type: in vivo, C. elegans
Procedure: (§1) Compounds were dissolved in the vehicle in which they were the most soluble (DMSO or molecular grade water). […] Microwave to dissolve (note: this will boil over rapidly). The screen is performed in a 24-well flat-bottom plate. […] Proceed to next step quickly. […] Immediately begin mixing with pipette tip until the compound dissolves (at this point the mixture should be clear). Fill the remainder of the plate (I usually prepare duplicate wells for each compound) and cover with aluminum foil to protect the compounds from light. Leave at room temperature overnight to allow the plate to dry before screening. […] Prepare at least 4 small plates for each line. […] Pick a line to start with. […] Start timing as soon as a well has been filled. […] Touch the tail of each worm gently with a platinum wire to promote motion. Record any observations. (I like to record the proportion of worms that retain the original phenotype, the proportion that show full body paralysis/death, and the proportion that show paralysis of the neck only).

[2] = tested on: EG9152 GOF worms (C. elegans NALCN(gf) model); experiment: Screen of putative NALCN antagonists by motor behavior, GOF worms on compound agar; assay type: in vivo
Procedure: as §1

[3] = tested on: Outward K+ currents; experiment: Electrophysiology tests, whole-cell recording of E16 embryonic cortical neurons; assay type: cell-based; conditions: mouse E16 cortical neurons, ramp −60~+80 mV, quantified at +80 mV (figure legends)
Procedure: Briefly, the cerebral cortex was isolated from embryos of E16 pregnant mouse (C57/BL6) and cut into small cubes. After being digested in 0.05% Trypsin for 25-30 mins in 37° C. in incubator, the Trypsin was neutralized with 1-2 ml DMEM (containing 10% FBS. The pellets were then triturated with a pipette for 10-15 time and then diluted into plating media (DMEM with 10% FBS). The cell suspension was sieved through a […] nylon filter and plated onto cover slips coated with poly-D-lysine (PDL) in 35 mm dishes at density of 2×10^5 cells per dish. After culturing for 2 hrs in incubator, the plating media was replaced with the following media: Neurobasal media supplemented with 2% B27. Neurobasal media was changed every 3 days until the experiment start.
Membrane potentials of neurons were recorded in whole-cell configuration at 20° C.-22° C. in a mouse E16 embryonic cortical neuron preparation. The pipette solution contained (in mM): K-Gluconate 115; KCl 25; CaCl2) 0.1; MgCl2 5; BAPTA 1; HEPES 10; Na2ATP 5; Na2GTP 0.5; cAMP 0.5; cGMP 0.5, pH 7.2 with KOH, 320 mOsm. The bath solution consisted of (in mM): NaCl 150; KCl 5; CaCl2) 5; MgCl2 1; glucose 10; sucrose 5; HEPES 15, pH 7.3 with NaOH, 330 mOsm. For zero and 15 Na+ solution, extracellular Na+ ([Na+]o) was replaced with N-methyl-D-glucamine (NMDG+) or Tris+. RMP was recorded at 0 pA. […]

Structure (SMILES): CCOC(=O)c1ccc(N)cc1 [Benzocaine]
- proportion of worms: N2 ([1]; 2.4 mM, 20 min, Trials 3-4): 20 min: 28% N2, and 20 min: 27% N2,
- proportion of worms: sluggish N2 ([1]; 4.71 mM, 30 min, Trial 2): 30 min: 18%
- proportion of worms: LOF ([1]; 4.71 mM, 1 hr, Trials 1-2): 1 hr: 100%
- proportion of worms: rescue ([2]; 2.4 mM, 20 min, Trials 3-4): 20 min: 40% and 20 min: 33%
- proportion of worms: rescue ([2]; 2.4 mM, 40 min, Trials 3-4): 40 min: 8% and 40 min: 11%
- Rescue worms still move fairly ... ([2]; 4.71 mM, 30 min, Trial 1): quickly.
- amplitude of body bends overall ([2]; 4.71 mM, 30 min, Trial 1): Reduced
- proportion of worms: rescue ([2]; 4.71 mM, 30 min, Trials 1-2): 30 min: 38% and 30 min: 8%
- proportion of worms: LOF ([2]; 4.71 mM, 1 hr, Trials 1-2): 1 hr: 100%
- paralysis of neck and reduced body bend amplitude but not as obvious a phenotype as Verapamil ([2]; remark for the trials at 4.71 mM and 2.4 mM): Show

Structure (SMILES): CN1CCOC(c2ccccc2)c2ccccc2C1 (centres unmarked) [Nefopam]
- effect on Outward K+ currents [3]: blocked
- proportion of worms: “rescue” ([1]; 3.3 mM, 20 min, Trials 3-4): 20 min: 15% and 20 min: 7%
- proportion of worms: “rescue” ([1]; 6.65 mM, 20 min, Trials 1-2): 20 min: 9% and 20 min: 23%
- proportion of worms: LOF ([1]; 6.65 mM, 50 min, Trials 1-2): 50 min: 100%
- proportion of worms: LOF ([2]; 3.3 mM, 20 min, Trial 3): rescue, 30%
- proportion of worms: GOF ([2]; 3.3 mM, 20 min, Trial 4): rescue, 31% GOF.
- proportion of worms: rescue ([2]; 3.3 mM, 20 min, Trials 3-4): 20 min: 70% and 20 min: 69%
- proportion of worms: GOF ([2]; 3.3 mM, 40 min, Trial 3): rescue, 8% GOF,
- proportion of worms: LOF ([2]; 3.3 mM, 40 min, Trial 3): 67% LOF.
- proportion of worms: rescue ([2]; 3.3 mM, 40 min, Trials 3-4 (Trial 4: sluggish)): 40 min: 100% and 40 min: 25%
- proportion of worms: rescue ([2]; 6.65 mM, 20 min, Trials 1-2): 20 min: 33% and 20 min: 90%
- proportion of worms: rescue ([2]; 6.65 mM, 50 min, Trial 2): 50 min: 60%

Structure (SMILES): CCOC(=O)C1=C(COCCN)NC(C)=C(C(=O)OC)C1c1ccccc1Cl (centres unmarked) [Amlodipine Besylate, Amlodipine]
- effect on Outward K+ currents [3]: blocked
- proportion of worms: “rescue” (slight but present) ([1]; 1.25 mM, 30 mins, Trial 4): 30 mins: 50%
- proportion of worms: WT(N2) ([1]; 1.25 mM, 1 hr, Trial 4): 10% WT(N2).
- proportion of worms: rescue ([1]; 1.25 mM, 1 hr, Trial 4): 1 hr: 90% rescue,
- proportion of worms: GOF ([2]; 1.25 mM, 30 mins, Trial 4): rescue, 36% GOF.
- proportion of worms: rescue ([2]; 1.25 mM, 30 mins, Trial 4): 30 mins: 64%
- proportion of worms: GOF ([2]; 1.25 mM, 1 hr, Trial 4): 27%
- proportion of worms: LOF ([2]; 1.25 mM, 1 hr, Trial 4): 9%
- proportion of worms: rescue ([2]; 1.25 mM, 1 hr, Trial 4): 1 hr: 64% rescue,

Structure (SMILES): COc1cc2c3cc1Oc1c(OC)c(OC)cc4c1[C@@H](Cc1ccc(O)c(c1)Oc1ccc(cc1)C[C@@H]3N(C)CC2)N(C)CC4 [Berbamine dihydrochloride, Berbamine]
- response ([1]; 4.4 mM, 30 min, Trial 1): 30 min: No
- proportion of worms: “rescue” ([1]; 4.4 mM, 30 min, Trials 2-3): 30 min: 70% and 30 min: 30%
- phenotype proportions at 1 hr compared with 30 min ([1]; 4.4 mM, 1 hr, Trial 3): 1 hr: no change.
- proportion of worms: LOF ([2]; 4.4 mM, 30 min, Trial 3): GOF, 25% LOF.
- proportion of worms: rescue ([2]; 4.4 mM, 30 min, Trials 1-3): 30 min: 20% and 30 min: 70% and 30 min: 33%
- proportion of worms: rescue ([2]; 4.4 mM, 1 hr, Trial 1): 1 hr: 50-60%
- phenotype proportions at 1 hr compared with 30 min ([2]; 4.4 mM, 1 hr, Trials 2-3): 1 hr: no change.
